Assays:
A receptor of endothelin = molecular target: T1, A receptor of endothelin (Rattus norvegicus, UniProt P26684); experiment: Study of the activity on the A receptor of endothelin: displacement of 125I Endothelin on membrane preparation of rat heart (ventricles); format: binding; conditions: Table II, rat heart (ventricles) membranes, 25° C., 60 minutes, read-out: B receptor of endothelin IC50 in nanomoles
T1 construct: A membrane preparation is produced from the heart (ventricles) of a rat; from tissue; host or cells: rat heart (ventricles), membrane preparation
T1 sequence (P26684 21-426): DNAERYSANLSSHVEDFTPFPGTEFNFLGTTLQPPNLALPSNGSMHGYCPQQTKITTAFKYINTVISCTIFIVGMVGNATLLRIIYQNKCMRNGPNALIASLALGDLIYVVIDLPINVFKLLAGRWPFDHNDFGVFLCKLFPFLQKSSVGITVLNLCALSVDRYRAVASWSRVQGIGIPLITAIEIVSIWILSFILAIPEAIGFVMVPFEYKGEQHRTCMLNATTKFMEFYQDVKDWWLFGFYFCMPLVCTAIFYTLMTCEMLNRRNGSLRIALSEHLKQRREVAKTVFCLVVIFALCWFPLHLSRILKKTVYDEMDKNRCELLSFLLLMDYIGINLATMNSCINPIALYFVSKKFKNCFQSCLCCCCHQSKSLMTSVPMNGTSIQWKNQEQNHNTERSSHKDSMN
Procedure: STUDY OF THE ACTIVITY ON THE A RECEPTOR OF ENDOTHELIN
A membrane preparation is produced from the heart (ventricles) of a rat. The tissue is ground up in a POLYTRON in a 50 mM Tris buffer pH=7.4.
After 30 minutes at 25° C. (W.B.) the homogenate is centrifuged at 30000 g for 15 minutes (2 centrifugations with intermediate take up in the Tris buffer pH. 7.4).
(§1) The pellets are resuspended in an incubation buffer (25 mM Tris, 5 microg/ml pepstatin A, 3 microg/ml aprotinin, 0.1 mM PMSF, 3 mM EDTA, 1 mM EGTA pH 7.4).
(§2) 2 ml aliquots are distributed into hemolysis tubes and ^125 I Endothelin (approximately 50000 dpm/tube) and the product to be studied are added. (The product is first tested at 3×10^-5 M three times). When the tested product displaces more than 50% of the radioactivity specifically bound to the receptor, it is tested again according to a range of 7 concentrations so as to determine the concentration which inhibits the radioactivity specifically bound to the receptor by 50%. In this way the 50% inhibitory concentration is determined.
(§3) The non-specific bond is determined by the addition of 10^-6 M endothelin (three times). After incubation at 25° C. for 60 minutes, putting back in the water bath at 0° C., for 5 minutes, filtering under reduced pressure, rinsing with Tris buffer 7.4, the radioactivity is counted in the presence of scintillating Triton.
(§4) The result is expressed directly as the 50% inhibitory concentration (IC50), that is to say as the concentration of product studied expressed in nM, necessary to displace 50% of the specific radioactivity bound to the receptor studied.

B receptor of endothelin = molecular target: T2, B receptor of endothelin (Rattus norvegicus, UniProt P21451); experiment: Study of the activity on the B receptor of endothelin: displacement of 125I Endothelin on membrane preparation of rat posterior cortex plus cerebellum; format: binding; conditions: Table I, rat posterior cortex plus cerebellum membranes, 25° C., 60 minutes, read-out: B receptor of endothelin IC50 in nanomoles
T2 construct: A membrane preparation is produced from the posterior cortex plus cerebellum of a rat; from tissue; host or cells: rat posterior cortex plus cerebellum, membrane preparation
T2 sequence (P21451 27-442): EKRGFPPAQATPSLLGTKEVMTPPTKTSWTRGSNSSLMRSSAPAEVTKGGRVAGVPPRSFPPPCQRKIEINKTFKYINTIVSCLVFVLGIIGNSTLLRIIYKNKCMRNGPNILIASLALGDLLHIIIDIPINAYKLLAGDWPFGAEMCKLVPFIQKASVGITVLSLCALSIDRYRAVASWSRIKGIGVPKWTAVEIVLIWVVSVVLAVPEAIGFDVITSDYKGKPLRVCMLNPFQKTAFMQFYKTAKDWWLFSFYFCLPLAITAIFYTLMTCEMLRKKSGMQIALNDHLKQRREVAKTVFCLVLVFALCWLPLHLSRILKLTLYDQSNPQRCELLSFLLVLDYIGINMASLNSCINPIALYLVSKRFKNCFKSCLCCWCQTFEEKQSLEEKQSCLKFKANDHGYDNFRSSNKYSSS
Procedure: STUDY OF THE ACTIVITY ON THE B RECEPTOR OF ENDOTHELIN
A membrane preparation is produced from the posterior cortex plus cerebellum of a rat. The tissue is ground up in a POLYTRON in a 50 mM Tris buffer pH=7.4.
After 30 minutes at 25° C. (W.B.) the homogenate is centrifuged at 30000 g for 15 minutes (2 centrifugations with intermediate take-up in the Tris buffer pH. 7.4).
as §1, §2, §3, §4

| IC50 (A receptor of endothelin) | IC50 (B receptor of endothelin) | SMILES |
| --- | --- | --- |
| 167 nM | 420 nM | COc1ccc(CSc2nc(Sc3ccccc3)n(Cc3cc4c(cc3Cl)OCO4)c2C(=O)O)cc1 [Example 10, 1-((6-chloro-1,3-benzodioxol-5-yl)methyl)-4-(((4-methoxyphenyl)methyl)thio)-2-(phenylthio)-1H-imidazole-5-carboxylic acid] |
| 170 nM | 110 nM | COc1ccc(Sc2nc(Sc3ccccc3)n(Cc3cc4c(cc3Cl)OCO4)c2C(=O)O)cc1 [Example 15] |
| 230 nM | 88 nM | COc1ccc(Sc2nc(Sc3ccc(OC)cc3)n(Cc3cc4c(cc3Cl)OCO4)c2C(=O)O)cc1 [Example 18, 1-((6-chloro-1,3-benzodioxol-5-yl)methyl)-2,4-bis(4-(methoxyphenyl)thio)-1H-imidazole-5-carboxylic acid] |

Reference: patent US5856509A, “Derivatives of imidazole, their preparation process, the new intermediates obtained, their use as medicaments and the pharmaceutical compositions containing them” (Roussel Uclaf, priority 1994, dated 1999)
